The source of these data is US20040235083A1, “Screening method” (priority 2001, published 2004).

Series [1] has as its target T1, NQO2 (Mus musculus, UniProt Q9JI75).
T1 construct: made in house; host or cells: E. coli DH5α carrying pGEX-4T-2 with the insert
T1 sequence (Q9JI75 1-231): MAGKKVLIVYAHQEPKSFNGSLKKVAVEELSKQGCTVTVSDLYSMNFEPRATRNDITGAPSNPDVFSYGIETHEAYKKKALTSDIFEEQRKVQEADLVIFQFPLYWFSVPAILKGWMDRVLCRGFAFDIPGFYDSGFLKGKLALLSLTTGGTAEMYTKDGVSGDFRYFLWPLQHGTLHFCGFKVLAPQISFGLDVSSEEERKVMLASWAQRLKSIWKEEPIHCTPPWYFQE
As to the kind of experiment: Effect of compound on NQO2 activity (reduction of methyl red by GST-NQO2 fusion protein, absorbance at 436 nm). The format is biochemical. As to conditions: 1 μM compound; 10 nM fusion protein, 30 μM methyl red, 25° C., pH 7.4; read-out: inhibitory action on NQO2 activity. The method, then:
Entire RNA was prepared from a mouse osteoblastic cell line, MC3T3-E1, and cDNA was synthesized by using the oligo-dT primer. PCR was performed by using the cDNA as a template and two synthetic DNAs having the nucleotide sequences of SEQ ID NO: 5 and SEQ ID NO: 6, respectively, as primers to add the sequences recognized-by restriction enzymes. The resulting DNA fragment was cleaved with restriction enzymes BamHI and SalI and inserted into the BamHI-SalI cleavage site of plasmid pGEX-4T-2 (Amersham Pharmacia Biotech). The nucleotide sequence was confirmed, and then E. coli DH5α (GIBCO BRL) carrying the plasmid was cultured in an LB medium. According to the protocol recommended by Amersham Pharmacia Biotech, expression was induced by IPTG, and then purification was performed by using Glutathione-Sepharose (Amersham Pharmacia Biotech). From 2 L of the LB medium, 3.0 mg of the fusion protein was obtained.
Compound A having an osteogenesis-promoting action was examined for effects on the NQO2 activity by using the fusion protein obtained in the above (1). […] The decrease in absorbance at 436 nm was monitored to detect the reduction of methyl red. […]

Series [2] concerns osteoblasts. Briefly: Alkaline phosphatase induction in the test using osteoblasts. The format is cell-based. As to conditions: concentration of 1 μM.
Series [3] concerns osteoblastic cell line MC3T3-E1. As to the kind of experiment: Alkaline phosphatase activity in MC3T3-E1 after introduction of antisense or sense DNA to NQO2 mRNA. The format is cell-based, mouse. The note with it: MC3T3-E1, S-oligo DNA with FuGene 6, four days incubation, corrected for protein. On the procedure: The alkaline phosphatase activity is represented by a relative activity (%) by taking a control value (with no DNA) as 100.
The mouse osteoblastic cell line, MC3T3-E1, in a MEMα medium containing 10% fetal calf serum and 100 μg/ml of kanamycin was inoculated on a 48-well plate at 1.4×10^4 cells per well and cultured overnight. To 100 μl of a serum-free αMEM were added 3 μl of FuGene 6 (Roche), 1.5 μg of the S-oligo DNA having the sequence of SEQ ID NO: 7 (antisense sequence to mouse NQO2 mRNA) and 1.5 μg of the S-oligo DNA having the sequence of SEQ ID NO: 8 (sense sequence to the mRNA) and the mixture was allowed to stand at room temperature for 15 minutes. To each well was added 22 μl of the mixture and incubated under 5% CO2 at 37° C. overnight. Thereafter, ascorbic acid was added at a final concentration of 50 μg/ml, and 10 mM of β-glycerophosphate was added. Incubation was performed for four days, and the activity of the alkaline phosphatase was measured according to Notoya et al. (Journal of Bone and Mineral Research 9: 395-400, 1994). The concentration of the protein in each cell homogenate was measured, and the activity values were corrected and shown in FIG. 1 by taking the activity obtained by the same procedure without addition of the DNA as 100%.

Regarding `O=C1NC(=O)C(Cc2ccc(NC(=O)C3=CC(=O)C4C(O)=CC=CC4O3)cc2)S1` (stereo not shown) [Compound A], the inhibition at 1 µM in series [1] was found to be 38%. Further, in series [2], the alkaline phosphatase-inducing action entry is reported as “alkaline phosphatase-inducing action”.
For the compound “antisense DNA: S-oligo DNA having the sequence of SEQ ID NO: 7 (antisense sequence to mouse NQO2 mRNA) (antisense CTGCCATGTTGGAGGAGATA; DNA, all phosphorothioate, methylation of C not given here)”, the “alkaline phosphatase activity relative to cells without introduction of DNA (100%)” value in series [3] was “significantly higher”.
Take “sense sequence DNA: S-oligo DNA having the sequence of SEQ ID NO: 8 (sense sequence to the mRNA) (sense TATCTCCTCCAACATGGCAG; DNA, all phosphorothioate, methylation of C not given here) [reference compound]”: in series [3], the “alkaline phosphatase activity relative to cells without introduction of DNA (100%)” value was “no difference was observed”.
